# In the Deep4Chem optical property database:
# Assay: solvent given as SMILES
smiles,measurement,setting,value
COC(=O)c1cc(=O)n(Cc2ccccc2)c2cc(-c3ccc(OC)cc3)sc12,emission maximum,in CC#N,477 nm
same,emission maximum,in ClCCl,474 nm
Cc1cc(C)c(B(c2cc(-c3ccc(N(C)C)cc3)sc2-c2sc(-c3ccc(N(C)C)cc3)cc2P(=O)(c2ccccc2)c2ccccc2)c2c(C)cc(C)cc2C)c(C)c1,emission maximum,in CO,645 nm
CCC1=C(C)C2=C(c3ccc(-c4c5ccccc5c(-c5ccccc5)c5ccccc45)cc3)c3c(C)c(CC)c(C)n3[B-](F)(F)[N+]2=C1C,emission maximum,in CC#N,534 nm
same,emission maximum,in CCCCCC,536 nm
same,emission maximum,in CCO,537 nm
same,emission maximum,in CN(C)C=O,537 nm
same,emission maximum,in Cc1ccccc1,539 nm
same,emission maximum,in ClCCl,540 nm
Cc1cc(O)c(C(=O)/C=C/c2ccc(Cl)cc2Cl)c(=O)o1,emission maximum,in CC#N,473 nm
same,emission maximum,in ClCCl,472 nm
CCCCCCCCCCCCn1c(-c2cc(-c3nc4ccccc4n3CCCCCCCCCCCC)cc(-c3nc4ccccc4n3CCCCCCCCCCCC)c2)nc2ccccc21,emission maximum,in C1CCOC1,367.4 nm
C[Si]1(C)c2cc(C#Cc3ccccc3)ccc2C=Cc2ccc(C#Cc3ccccc3)cc21,emission maximum,in ClCCl,407 nm
CC1(C)CC(/C=C/c2ccc(-n3cccn3)cc2)=CC(=C(C#N)C#N)C1,emission maximum,in C1CCOC1,529 nm
same,emission maximum,in CC#N,538 nm
same,emission maximum,in CCO,532 nm
same,emission maximum,in CCOC(C)=O,526 nm
same,emission maximum,in ClCCl,528 nm
same,emission maximum,in c1ccccc1,511 nm
Cc1cc(C)c([B-]2(c3c(C)cc(C)cc3C)[O+]=P(c3ccccc3)(c3ccccc3)c3cc(C#Cc4ccccc4)sc3-c3sc(C#Cc4ccccc4)cc32)c(C)c1,emission maximum,in C1CCOC1,498 nm
O=C([O-])c1ccc(C(=O)[O-])c(C2=c3cc4c5c(c3Oc3c2cc2c6c3CCCN6CCC2)CCC[N+]=5CCC4)c1,emission maximum,in CCO,596 nm
same,emission maximum,in O,603 nm
CCCSc1ccc2n1[B-](F)(F)[N+]1=C(SC#N)C=CC1=C2c1ccccc1,emission maximum,in CC#N,567 nm
same,emission maximum,in CCCCCC,568 nm
same,emission maximum,in CCOC(C)=O,567 nm
same,emission maximum,in CO,563 nm
same,emission maximum,in ClCCl,569 nm
F[B-]1(F)n2c(cc3oc4ccccc4c32)C(c2ccc(I)cc2)=C2C=c3oc4ccccc4c3=[N+]21,emission maximum,in ClC(Cl)Cl,647 nm
Fc1nc(F)c(F)c(/C=C2/C(c3c(F)c(F)nc(F)c3F)=Cc3ccccc32)c1F,emission maximum,in CC#N,395 nm
CCCCCCCCC1(CCCCCCCC)c2cc(C#CC#Cc3ccc(N(c4ccccc4)c4ccccc4)cc3)ccc2-c2ccc(C=O)cc21,emission maximum,in C1CCOC1,498 nm
same,emission maximum,in C1COCCO1,448 nm
same,emission maximum,in CC#N,525 nm
same,emission maximum,in CC(C)=O,541 nm
same,emission maximum,in CCCCCC,422 nm
same,emission maximum,in CCOC(C)=O,500 nm
same,emission maximum,in CN(C)C=O,523 nm
same,emission maximum,in CS(C)=O,540 nm
same,emission maximum,in Cc1ccccc1,442 nm
same,emission maximum,in ClC(Cl)Cl,500 nm
same,emission maximum,in ClCCl,520 nm
C/C(=C\c1ccc(Cl)cc1)c1nc2ccccc2s1,emission maximum,in C1CCCCC1,390 nm
same,emission maximum,in CO,400 nm
Cc1cc(C)c(C)c(-c2ccc3cc(C)c(=O)oc3c2)c1C,emission maximum,in C1CCCCC1,383 nm
same,emission maximum,in CC#N,388 nm
same,emission maximum,in CO,394 nm
CCC1(CC)c2cc(B(c3c(C)cc(C)cc3C)c3c(C)cc(C)cc3C)ccc2-c2c1c1c(c3c2C(CC)(CC)c2cc(N(c4ccccc4)c4ccccc4)ccc2-3)C(CC)(CC)c2cc(B(c3c(C)cc(C)cc3C)c3c(C)cc(C)cc3C)ccc2-1,emission maximum,in C1CCOC1,500 nm
same,emission maximum,in CC#N,582 nm
same,emission maximum,in CC(C)=O,550 nm
same,emission maximum,in CCCCCC,421 nm
same,emission maximum,in CCCO,501 nm
same,emission maximum,in CCO,512 nm
same,emission maximum,in Cc1ccccc1,444 nm
same,emission maximum,in ClC(Cl)Cl,473 nm
Cc1ccc(-c2ccc(-c3ccc(C)cc3)c(/C(=C(/c3ccccc3)c3cc(-c4ccc(C)cc4)ccc3-c3ccc(C)cc3)c3ccccc3)c2)cc1,emission maximum,in C1CCOC1,492 nm
CC[N+](CC)=c1ccc2c(-c3ccccc3C(=O)O)c3cc4c(-c5ccccc5C(=O)O)c5ccc(=[N+](CC)CC)cc-5oc4cc3oc-2c1,emission maximum,in ClC(Cl)Cl,622 nm
Fc1nc(F)c(F)c(C#Cc2cc3c(cc2C#Cc2c(F)c(F)nc(F)c2F)OC2(CCCCC2)O3)c1F,emission maximum,in CC#N,460 nm
CCCCCCCCCCCCC(CCCCCCCCCC)Cn1c2cc(C=C(C#N)C#N)c3cccc4c5cccc6c(C=C(C#N)C#N)cc1c(c65)c2c34 (configuration not stated),emission maximum,in C1CCCCC1,603 nm
same,emission maximum,in CC#N,641 nm
same,emission maximum,in Cc1ccccc1,623 nm
same,emission maximum,in ClCCl,635 nm
COCCC1=Cc2nc1ccc1[nH]c(cc1CCOC)c1nc(ccc3[nH]c2cc3CCO)C(CCOC)=C1,emission maximum,in Cc1ccccc1,643 nm
c1ccc(-c2cc(-c3ccc(N(c4ccccc4)c4ccccc4)cc3)cc(-c3ccccc3)n2)cc1,emission maximum,in CC#N,489 nm
same,emission maximum,in CCCCCC,393 nm
same,emission maximum,in CCO,505 nm
same,emission maximum,in CO,524 nm
same,emission maximum,in ClCCl,476 nm
O=Cc1ccc(-c2ccc(C3=CCCCC3)s2)s1,emission maximum,in C1CCOC1,467 nm
same,emission maximum,in CC#N,485 nm
same,emission maximum,in CCCCCC,444 nm
same,emission maximum,in CCO,498 nm
same,emission maximum,in OCCOCCO,508 nm
same,emission maximum,in c1ccncc1,483 nm
